The values that follow come from US20160297763A1, “Heteroaryl hydroxamic acid derivatives and their use in the treatment, amelioration or prevention of a viral disease” (priority 2011, published 2016).

SMILES strings stand for the structures.

Test system in one series: not given
Assay: not given
Settings: not given
`O=C(c1cc(N2CCC3(CC2)OCCO3)ccn1)N(O)Cc1ccccc1`: the melting point (in general, the temperature of the solid-liquid transition) was 98 to 102 °C.
Still for that read-out and setting: in the case of `C[C@@H]1CN(c2ccnc(C(=O)N(O)Cc3ccccc3)c2)C[C@H](C)O1` it was 180 to 185 °C; in that of `Cc1cccc(C(=O)NOCc2ccccc2)n1`, 75 to 80 °C.
Still for that read-out and setting: in the case of `Cc1c(-c2cccnc2)sc2nc(N)[nH]c(=O)c12` it was 280 to 290 °C.
The same measure, in the same setting: as for `Cc1c(-c2cnccn2)sc2nc(N)[nH]c(=O)c12`, the figure is 280 to 300 °C; as for `O=C(NOCc1ccccc1)c1ccc(N2CCCC2)cn1`, 165 to 170 °C.
Take `O=C(NOCc1ccccc1)c1cc2ccccc2cn1`: the melting point fell in the range of 85 to 90 °C.
Still for that read-out and setting: as for `O=C(c1ccc(N2CCCC2)cn1)N(Cc1ccccc1)OCc1ccccc1`, the figure is 95 to 100 °C.
On the same count and under the same terms, as for `Cc1c(-c2ccccc2Cl)sc2nc(N)[nH]c(=O)c12`, the figure is 334 to 336 °C.
`Cc1c(-c2cccc(F)c2)sc2nc(N)[nH]c(=O)c12` displayed a melting point of 310 to 330 °C.
The same measure, in the same setting: in the case of `Cc1c(-c2ccc(Cl)cc2F)sc2nc(N)[nH]c(=O)c12` it was 320 to 340 °C; in that of `CCON(C)C(=O)c1ccc(-c2ccccc2)cn1`, 70 to 75 °C.
Still for that read-out and setting: as for `Cc1c(-c2ccc(Cl)c(F)c2)sc2nc(N)[nH]c(=O)c12`, the figure is 350 to 370 °C; as for `Cc1cc(-c2sc3nc(N)[nH]c(=O)c3c2C)ccc1Cl`, 330 to 350 °C.
The same measure, in the same setting: as for `Nc1nc2sc(-c3ccccc3)cc2c(=O)[nH]1`, the figure is over 360 °C; as for `Cc1c(-c2ccc(Cl)c(C(F)(F)F)c2)sc2nc(N)[nH]c(=O)c12`, over 350 °C.
`Cc1c(-c2cc(C#N)ccc2Cl)sc2nc(N)[nH]c(=O)c12` showed a melting point of over 350 °C.
The same measure, in the same setting: in the case of `Cc1c(-c2cccc(C#N)c2F)sc2nc(N)[nH]c(=O)c12` it was 350 to 370 °C.
On the same count and under the same terms, as for `Cc1c(-c2ccccc2)sc2nc(N)[nH]c(=O)c12`, the figure is 356 to 358 °C; as for `Cc1c(-c2cccc(CN(C)C)c2)sc2nc(N)[nH]c(=O)c12`, 207 to 212 °C; as for `Cl.O=C(NO)c1cc(NS(=O)(=O)Cc2cccc(Cl)c2)ccn1`, 198 to 204 °C.
Still for that read-out and setting: in the case of `Cc1c(C2=CCNCC2)sc2nc(N)[nH]c(=O)c12` it was 290 to 310 °C; in that of `Cl.O=C(NO)c1cc(NS(=O)(=O)Cc2ccc(Cl)c(Cl)c2)ccn1`, 228 to 238 °C; in that of `Cl.O=C(NO)c1cc(NS(=O)(=O)Cc2cccc(Cl)c2Cl)ccn1`, 210 to 218 °C.
The compound `Cc1c(-c2ccccc2)sc2nc(NCCO)[nH]c(=O)c12` gave a melting point of 227 to 229 °C.
As to `Cc1c(-c2ccccc2)sc2nc(NCCCO)[nH]c(=O)c12`, the melting point was in the range of 227 to 229 °C.
In the case of `Cl.O=C(NO)c1cc(NS(=O)(=O)Cc2cccc(C(F)(F)F)c2)ccn1`, the melting point lay in the range of 201 to 204 °C.
Turning to `Cc1c(-c2ccccc2)sc2nc(NCCN3CCOCC3)[nH]c(=O)c12`, the melting point was in the range of 240 to 246 °C.
Same read-out and setting: in the case of `Cc1c(-c2ccccc2)sc2nc(N3CCOCC3)[nH]c(=O)c12` it was 300 to 320 °C; in that of `Cc1c(-c2ccccc2)sc2nc(NCCNC(=O)CCN3CCN(C)CC3)[nH]c(=O)c12`, 235 to 245 °C; in that of `Cc1c(-c2ccccc2)sc2nc(NCCNC(=O)CCCN3CCN(C)CC3)[nH]c(=O)c12`, 192 to 196 °C.
The same measure, in the same setting: in the case of `Cl.O=C(c1cc(NS(=O)(=O)Cc2cccc(Cl)c2)ccn1)N(O)Cc1ccccc1` it was 115 to 125 °C; in that of `O=C(c1cc(-c2ccc(Cl)c(Cl)c2)ccn1)N(O)Cc1ccccc1`, 125 to 130 °C; in that of `NC(=O)c1cccc(-c2ccnc(C(=O)N(O)Cc3ccccc3)c2)c1`, 158 to 162 °C.
On the same count and under the same terms, as for `NC(=O)c1ccc(-c2ccnc(C(=O)N(O)Cc3ccccc3)c2)cc1`, the figure is 155 to 160 °C; as for `CC(c1ccccc1)c1cc2c(=O)[nH]c(N)nc2s1` (stereo not shown), 260 to 270 °C; as for `CN(O)C(=O)c1cc2ccccc2cn1`, 110 to 115 °C.
Consider `CC(C)(C)OC(=O)N1CCC=C(c2ccnc(C(=O)N(O)Cc3ccccc3)c2)C1`, for which the melting point lay in the range of 128 to 134 °C.
The same measure, in the same setting: as for `O=C(c1ccc(-c2ccccc2)cn1)N(O)Cc1ccccc1`, the figure is 145 to 150 °C; as for `Cl.O=C(c1cc(N2CCC(F)(F)CC2)ccn1)N(O)Cc1ccccc1`, 90 to 95 °C.

Another series relates to influenza A virus A/Aichi/2/68 (H3N2). As to the kind of experiment: Cytopathic effect (CPE) assay H3N2. The settings on record: Influenza A virus, H3N2, activity conc 1 (μM per method); read-out: CPE H3N2 reduction (%). In kind it is cell-based, influenza A virus (H3N2) on MDCK cells. The method, then:
A possible measure of the […] antiviral activity of the compounds having the formula I or II is the CPE assay disclosed herein. […] In this connection, the reduction in the virus-mediated cytopathic effect (CPE) upon treatment with the compounds was calculated as follows: The cell viability of infected-treated and uninfected-treated cells was determined using an ATP-based cell viability assay (Promega). The response in relative luminescent units (RLU) of infected-untreated samples was subtracted from the response (RLU) of the infected-treated samples and then normalized to the viability of the corresponding uninfected sample resulting in % CPE reduction.
The influenza A virus (IAV) was obtained from American Tissue Culture Collection (A/Aichi/2/68 (H3N2); VR-547). Virus stocks were prepared by propagation of virus on Mardin-Darby canine kidney (MDCK; ATCC CCL-34) cells and infectious titres of virus stocks were determined by the 50% tissue culture infective dose (TCID50) analysis as described in Reed, L. J., and H. Muench. 1938, Am. J. Hyg. 27:493-497.
MDCK cells were seeded in 96-well plates at 2×10^4 cells/well using DMEM/Ham's F-12 (1:1) medium containing 10% foetal bovine serum (FBS), 2 mM L-glutamine and 1 antibiotics (all from PAA). Until infection the cells were incubated for 5 hrs at 37° C., 5.0 CO2 to form a ˜80% confluent monolayer on the bottom of the well. Each test compound was dissolved in DMSO and generally tested at 25 μM and 250 μM. In those cases where the compounds were not soluble at that concentration they were tested at the highest soluble concentration. The compounds were diluted in infection medium (DMEM/Ham's F-12 (1:1) containing 5 μg/ml trypsin, and 1% antibiotics) for a final plate well DMSO concentration of 1%. The virus stock was diluted in infection medium (DMEM/Ham's F-12 (1:1) containing 5 μg/ml Trypsin, 1% DMSO, and 1% antibiotics) to a theoretical multiplicity of infection (MOI) of 0.05.
After removal of the culture medium and one washing step with PBS, virus and compound were added together to the cells. In the wells used for cytotoxicity determination (i.e. in the absence of viral infection), no virus suspension was added. Instead, infection medium was added. Each treatment was conducted in two replicates. After incubation at 37° C., 5% CO2 for 48 hrs, each well was observed microscopically for apparent cytotoxicity, precipitate formation, or other notable abnormalities. Then, cell viability was determined using CellTiter-Glo luminescent cell viability assay (Promega). The supernatant was removed carefully and 65 μl of the reconstituted reagent were added to each well and incubated with gentle shaking for 15 min at room temperature. Then, 60 μl of the solution was transferred to an opaque plate and luminescence (RLU) was measured using Synergy HT plate reader (Biotek).
Relative cell viability values of uninfected-treated versus uninfected-untreated cells were used to evaluate cytotoxicity of the compounds. Substances with a relative viability below 80% at the tested concentration were regarded as cytotoxic and retested at lower concentrations.
Reduction in the virus-mediated cytopathic effect (CPE) upon treatment with the compounds was calculated as follows: The response (RLU) of infected-untreated samples was subtracted from the response (RLU) of the infected-treated samples and then normalized to the viability of the corresponding uninfected sample resulting in % CPE reduction.
(Cytopathic effects are the visible damage that an infection or toxin causes in cultured cells.)
As to `O=C(c1cc(-c2ccccc2)ccn1)N(O)Cc1ccc(F)cc1` [drawing 223], the inhibition at 1 µM was -3.2%.
On the same count and under the same terms, in the case of `O=C(c1cc(C2=CCCCC2)ccn1)N(O)Cc1ccccc1` [drawing 257] it was 3.4%.

Staying with this series, now noted: Influenza A virus, H3N2, activity conc 5 (μM per method); read-out: CPE H3N2 reduction (%).
With `NC(=O)c1cccc(-c2ccnc(C(=O)N(O)Cc3ccccc3)c2)c1` [drawing 221], the inhibition at 5 µM is -2.7%.
Still for that read-out and setting: as for `CC(C)(C)OC(=O)N1CC=C(c2ccnc(C(=O)N(O)Cc3ccccc3)c2)CC1` [drawing 229], the figure is 1.2%.
Still for that read-out and setting: as for `NC(=O)c1ccc(-c2ccnc(C(=O)N(O)Cc3ccccc3)c2)cc1` [drawing 232], the figure is -2.5%.
Consider `CN(C)S(=O)(=O)c1cccc(-c2ccnc(C(=O)N(O)Cc3ccccc3)c2)c1` [drawing 233], for which the inhibition at 5 µM was -1.8%.
Same read-out and setting: in the case of `O=C(c1cc(-c2cccc(CO)c2)ccn1)N(O)Cc1ccccc1` [drawing 240] it was 7.7%; in that of `CC(C)(C)OC(=O)N1CCC=C(c2ccnc(C(=O)N(O)Cc3ccccc3)c2)C1` [drawing 256], 10.2%.
Still for that read-out and setting: in the case of `O=C(c1cc(C2CCCCC2)ccn1)N(O)Cc1ccccc1` [drawing 258] it was -0.5%.

Still in this series, the particulars now being: Influenza A virus, H3N2, activity conc 50 (μM per method); read-out: CPE H3N2 reduction (%).
Turning to `O=C(c1cc(N2CCCC(F)(F)C2)ccn1)N(O)Cc1ccccc1` [drawing 224], the inhibition at 50 µM was 8.9%.
For `O=C(c1cc(N2CCC(N3CCCC3)CC2)ccn1)N(O)Cc1ccccc1` [drawing 226], the inhibition at 50 µM is 10.7%.
On the same count and under the same terms, as for `CC(C)(C)OC(=O)NC1CCN(c2ccnc(C(=O)N(O)Cc3ccccc3)c2)CC1` [drawing 227], the figure is 8.3%; as for `CN(C)CCNC(=O)c1cccc(-c2ccnc(C(=O)N(O)Cc3ccccc3)c2)c1` [drawing 230], 8.9%.
Same read-out and setting: as for `O=C(c1cc(N2CCC3(CC2)OCCO3)ccn1)N(O)Cc1ccccc1` [drawing 235], the figure is 9.5%; as for `CN1CC=C(c2ccnc(C(=O)N(O)Cc3ccccc3)c2)CC1` [drawing 260], 10.6%.
On the same count and under the same terms, in the case of `O=C(c1cc(C2=CC3CCC(C2)N3)ccn1)N(O)Cc1ccccc1` (stereo not shown) [drawing 283] it was 5.49%.

Still in this series, the particulars now being: activity conc 50 (μM per method).
`O=C(c1cc(N2CCOCC2)ccn1)N(O)Cc1ccccc1` [drawing 241]: the “CPE H3N2 reduction (%)” value is recorded as −3.4%.
On the same count and under the same terms, in the case of `Cl.O=C(c1cc(N2CCOCC2)ccn1)N(O)Cc1ccccc1` [drawing 242] it was 6.3%; in that of `Cl.O=C(NO)c1cc(NS(=O)(=O)Cc2cccc(Cl)c2)ccn1` [drawing 267], 5.9%.
Take `Cl.O=C(NO)c1cc(NS(=O)(=O)Cc2cc(Cl)cc(Cl)c2)ccn1` [drawing 276]: the “CPE H3N2 reduction (%)” value was determined as 9.3%.
Still for that read-out and setting: in the case of `Cl.O=C(NO)c1cc(NS(=O)(=O)Cc2cccc(Cl)c2)ccn1` [drawing 288] it was 2.29%.
